Measurements: patent EP2324824A2, “Medical application of lipid derivatives of dopamine” (Instytut Medycyny Doswiadczalnej I Klinicznej, priority 2009, dated 2011)

Tests used:
[1] = in vitro conditions; cited from earlier work
[2] = system: rat brain membrane system; format: in vivo, Wistar rats; settings: 20 mg/kg intraperitoneal
Protocol: N-oleoyl-dopamine was administered to Wistar rats at a dose of 20 mg/kg. After 1, 2, 3 or 24 hours the rat was sacrificed and the brain was resected. From the tissue, the whole lipid fraction, containing all lipids of the brain and the membrane fraction of the rat brain were obtained. Total lipids were obtained by homogenization of the brain in a mixture of chloroform and methanol 2:1 followed by an extraction of the water-soluble fractions and evaporation of the solvent. The membrane phase was obtained according to Xu et al. (Xu, 1998) and extracted with chloroform to obtain membrane lipids. All obtained samples were analyzed by the thin layer chromatography TLC on silica gel plates 60 using a mixture of chloroform and methanol 95:5 as the mobile phase and N-oleoyl-dopamine as the standard. The Retention Factor (Rf) for the N-oleoyl-dopamine standard was equal to 0.24-0.26. At the same level (the same Rf = […]) there were bands corresponding to N-oleoyl-dopamine in the biological samples, that is after systemic N-oleoyl-dopamine injection, but not in the control samples obtained with no N-oleoyl-dopamine injection.

[3] = system: brain; settings: after injection into the carotid artery; cited from earlier work
[4] = system: rat model of Parkinson's disease; settings: cited from earlier work
[5] = system: rat; settings: cited from earlier work
[6] = biological target: TRPV1 vanilloid receptors (Homo sapiens, UniProt Q8NER1); settings: mentioned in the literature; cited from earlier work
[7] = system: anesthetized, paralyzed and artificially ventilated Wistar rats; experiment: Respiratory response to hypoxia in the anesthetized rat (integrated phrenic nerve activity); format: in vivo; settings: for peak respiratory response in relation to the starting-point values: substance alone: N-oleoyl-dopamine 20 mg/kg, haloperidol 3 mg/kg, domperidone 0.3 mg/kg; for effect on respiration in the second inhibitory phase of the response to hypoxia: substance alone, 14% and 11 % hypoxia
Protocol: The study was performed in anesthetized, paralyzed and artificially ventilated Wistar rats. During the experiments, the integrated activity of the phrenic nerve was recorded. This activity reflects the frequency and tidal volume; their product represents the index of minute lung ventilation. The experimental protocol consisted of control recordings for two levels of the hypoxic stimulus: 14% and 11 % O2 in N2. Afterwards, N-oleoyl-dopamine in a dose of 20 mg/kg was given and the recordings were repeated. Additionally, experiments with two dopamine receptor antagonists were performed: first, with the penetrating through the blood-brain barrier D2 dopamine receptor antagonist haloperidol and second, with the non-penetrating through the blood-brain-barrier domperidone. In these studies, after the control recordings, haloperidol (in a dose of 3 mg/kg) or domperidone (in a dose of 0.3 mg/kg) were administered and the recordings repeated. Then, N-oleoyl-dopamine was given and the recordings were repeated.

[8] = system: awake Wistar rats; experiment: Respiration in normoxia and hypoxia in the awake rat (plethysmographic chamber); format: in vivo; settings: for Minute lung ventilation (peak respiratory response): after haloperidol 0.9 mg/kg i.p. and N-oleoyl-dopamine 40 mg/kg i.p.
Protocol: The study was performed in awake Wistar rats in a computerized plethysmographic chamber for small rodents. Respiratory frequency, tidal volume and pulmonary ventilation were measured. The experimental protocol included recordings in normoxia (breathing with atmospheric air), two levels of hypoxic stimulus (8% and 12% O2 in N2), intraperitoneal (i.p.) administration of N-oleoyl-dopamine (in a dose of 40 mg/kg) and repeated recordings for both normoxic and hypoxic states. Additionally, further experiments with the dopamine receptor antagonist haloperidol (in a dose of 0.9 mg/kg, i.p.) were performed. In those experiments, haloperidol was administered prior to N-oleoyl-dopamine and the recordings according the above-mentioned protocol were repeated. […]

[9] = system: animal model of Parkinson's disease; experiment: Muscle rigidity in reserpine + α-methyl-tyrosine model of Parkinson's disease (EMG); format: in vivo, rats; settings: 10 mg/kg
Protocol: Symptoms of the Parkinson's disease, particularly muscle rigidity during flexion and extension movements in the ankle joint, were induced with reserpine (2.5 mg/kg, i.p.) and α-methyl-tyrosine (α-MT, 250 mg/kg, i.p.) administered at a 16-h interval. Afterwards, 3'-O-methyl-N-oleoyl-dopamine (O-Me-OLDA) was administered at a dose of 10 mg/kg and the muscular tone was measured using electromyographic (EMG) techniques. The control groups consisted of a) only vehiculum-treated animals in which no symptoms of Parkinson's disease were induced (control), b) animals who received only 3'-O-methyl-N-oleoyl-dopamine (O-Me-OLDA) and c) animals in which symptoms of Parkinson's disease were induced (reserpine + α-MT), but no other treatment was introduced.

[10] = N-oleoyl-dopamine 20 mg/kg given after domperidone 0.3 mg/kg
[11] = N-oleoyl-dopamine 20 mg/kg given after haloperidol 3 mg/kg
[12] = 8% hypoxia, 40 mg/kg i.p., awake rat
[13] = 8% hypoxia, after 40 mg/kg i.p., awake rat
[14] = normoxia, 40 mg/kg i.p., awake rat

TRPV1 vanilloid receptors, sequence (Q8NER1 whole entry): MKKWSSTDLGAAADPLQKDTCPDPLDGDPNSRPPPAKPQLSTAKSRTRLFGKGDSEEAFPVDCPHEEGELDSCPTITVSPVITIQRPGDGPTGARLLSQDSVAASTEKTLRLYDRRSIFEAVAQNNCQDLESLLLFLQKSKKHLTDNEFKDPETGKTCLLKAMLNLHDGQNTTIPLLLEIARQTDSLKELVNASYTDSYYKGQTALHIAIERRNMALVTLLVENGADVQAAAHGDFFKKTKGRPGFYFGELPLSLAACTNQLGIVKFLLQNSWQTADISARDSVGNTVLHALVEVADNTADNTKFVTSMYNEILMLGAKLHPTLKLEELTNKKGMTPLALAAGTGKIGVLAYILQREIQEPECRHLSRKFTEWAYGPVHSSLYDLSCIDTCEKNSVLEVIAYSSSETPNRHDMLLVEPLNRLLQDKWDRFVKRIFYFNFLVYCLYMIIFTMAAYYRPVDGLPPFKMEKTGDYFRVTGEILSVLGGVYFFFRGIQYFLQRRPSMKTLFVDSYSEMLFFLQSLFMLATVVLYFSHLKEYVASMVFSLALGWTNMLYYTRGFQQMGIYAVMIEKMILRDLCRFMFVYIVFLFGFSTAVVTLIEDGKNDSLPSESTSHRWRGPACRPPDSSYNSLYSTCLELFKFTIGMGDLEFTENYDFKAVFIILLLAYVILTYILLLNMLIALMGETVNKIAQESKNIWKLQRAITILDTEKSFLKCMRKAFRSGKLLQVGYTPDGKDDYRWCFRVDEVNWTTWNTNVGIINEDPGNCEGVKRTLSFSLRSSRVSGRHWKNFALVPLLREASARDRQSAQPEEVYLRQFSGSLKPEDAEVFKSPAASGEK

CCCCCCCC/C=C\CCCCCCCC(=O)NCCc1ccc(O)c(O)c1 [N-oleoyl-dopamine]
stability [1]: highly stable | penetration into the membrane system of the brain ([2]; brain taken after 1, 2, 3 or 24 hours): penetrates into the membrane system of the rat brain | time staying unchanged bound to the brain membrane system ([2]; rat brain): at least 24 hours | penetration into the brain [3]: ability to penetrate into the brain | muscle rigidity [4]: diminishes muscle rigidity | locomotor activity [5]: increases the locomotor activity | action towards TRPV1 vanilloid receptors [6]: agonistic action | peak respiratory response in relation to the starting-point values ([7]; 11 % hypoxia (O2 in N2)): 38 ±9% | peak respiratory response in relation to the starting-point values ([7]; 14% hypoxia (O2 in N2)): 18 ±10% | effect on respiration in the inhibitory phase [7, 10]: still diminished the respiration | effect on response to hypoxia in the stimulatory phase [7, 10]: did not change the response to hypoxia | effect on respiratory response in the first stimulatory phase [7, 11]: did not restore the respiratory response | effect on respiratory response in the second inhibitory phase [7, 11]: still diminished it | effect on respiration in the second inhibitory phase of the response to hypoxia [7]: reduced the respiratory response to hypoxia | reduction of peak respiratory response [8, 12]: 41% | peak respiratory response [8, 13]: 1338.3 ±49.5 ml/min/kg body weight | Minute lung ventilation (peak respiratory response) ([8]; 8% hypoxia): 1947.3 ±66.5 ml/min/kg body weight | reduction of peak respiratory response ([8]; 12% hypoxia, 40 mg/kg i.p., awake rat): 36% | peak respiratory response ([8]; 12% hypoxia, after 40 mg/kg i.p., awake rat): 856.6 ±73.7 ml/min/kg body weight | Minute lung ventilation (peak respiratory response) ([8]; 12% hypoxia): 1484.0 ±92.3 ml/min/kg body weight | decrease in respiratory frequency [8, 14]: 23% | decrease of resting ventilation during breathing with atmospheric oxygen [8, 14]: 33%

O=c1[nH]c2ccccc2n1CCCN1CCC(n2c(=O)[nH]c3cc(Cl)ccc32)CC1 [domperidone, reference compound]
peak respiratory response in relation to the starting-point values ([7]; 11 % hypoxia (O2 in N2)): 26 ±5% | peak respiratory response in relation to the starting-point values ([7]; 14% hypoxia (O2 in N2)): 21 ±5%

CCCCCCCC/C=C\CCCCCCCC(=O)NCCc1ccc(O)c(OC)c1 [3'-O-methyl-N-oleoyl-dopamine]
action towards TRPV1 vanilloid receptors [6]: agonistic action | muscle rigidity ([9]; rats treated with reserpine 2.5 mg/kg i.p. + α-MT 250 mg/kg i.p.): abolished muscle rigidity | muscle tone in comparison to control recordings ([9]; substance alone, no Parkinson symptoms induced): did not change the muscle tone | muscle tone (force needed for flexion and extension of the ankle joint) ([9]; three-fold elevated level of muscle tone by reserpine, Fig.1): decreases nearly down to the control level | reduction of peak respiratory response [8, 12]: 19% | peak respiratory response [8, 13]: 1939 ±255 ml/min/kg body weight | decrease of resting ventilation during breathing with atmospheric oxygen [8, 14]: 23% | resting ventilation during breathing with atmospheric oxygen ([8]; normoxia, after 40 mg/kg i.p., awake rat): 779.7 ±148.7 ml/min/kg body weight

O=C(CCCN1CCC(O)(c2ccc(Cl)cc2)CC1)c1ccc(F)cc1 [haloperidol, reference compound]
peak respiratory response in relation to the starting-point values ([7]; 11 % hypoxia (O2 in N2)): 22 ±5% | peak respiratory response in relation to the starting-point values ([7]; 14% hypoxia (O2 in N2)): 18 ±3% | effect on respiration in the second inhibitory phase of the response to hypoxia [7]: diminished the respiration
